Test results published in patent US20160122307A1, “PERHYDROQUINOXALINE DERIVATIVES” (DR. AUGUST WOLFF GMBH & CO. KG ARZNEIMITTEL, priority 2013, published 2016).
Where two headings read alike, the source gives them in different places.

What was measured:
[1] = molecular target: T1, Human opiate κ receptors (Homo sapiens, UniProt P41145); assay type: binding; parameters: expressed in transfected cells; host or cells: HEK-293 cell membranes
[2] = molecular target: T1, Human opiate κ receptors; experiment: κ opioid receptor functional assay, [35S]GTPγS binding (assay C); assay type: biochemical; conditions: for activation at 1 µM: 0.5 h, read-out: % activation functional assay at 1 μM
[3] = test system: arachidonic acid-induced ear inflammation; assay type: in vivo, mice
[4] = read-out: EC50 (nM) [35S]GTPγS binding

T1 sequence (P41145 whole entry): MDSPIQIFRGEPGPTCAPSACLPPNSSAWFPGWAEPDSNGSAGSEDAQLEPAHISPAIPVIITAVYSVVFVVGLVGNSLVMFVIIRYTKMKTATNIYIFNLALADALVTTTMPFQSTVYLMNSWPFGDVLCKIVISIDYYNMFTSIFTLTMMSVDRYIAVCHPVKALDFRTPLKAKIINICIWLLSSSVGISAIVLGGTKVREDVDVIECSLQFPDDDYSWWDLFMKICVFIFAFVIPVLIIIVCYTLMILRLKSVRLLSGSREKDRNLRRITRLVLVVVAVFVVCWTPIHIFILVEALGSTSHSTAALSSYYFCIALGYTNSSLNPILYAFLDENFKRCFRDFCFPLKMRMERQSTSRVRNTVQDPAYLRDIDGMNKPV

SMILES	% binding at 100 nM [1] [%]	% activation functional assay at 1 μM [2] [%]	EC50 ([2]; read-out: GTPγS EC50) [nM]	further results
COC(=O)N1CCN(C(=O)Cc2ccc(Cl)c(Cl)c2)C2C(N3CCC(C(N)=O)C3)CCCC21.Cl (mixture of isomers) [Example 84]	89	99	10 to 100	–
COC(=O)N1CCN(C(=O)Cc2cc(F)cc(F)c2)[C@@H]2[C@@H](N3CCCC3)CCC[C@@H]21.Cl (racemic) [Example 2]	41	–	–	–
COC(=O)N1CCN(C(=O)Cc2ccc([N+](=O)[O-])cc2)[C@@H]2[C@@H](N3CCCC3)CCC[C@@H]21.Cl (racemic) [Example 4]	43	–	–	–
COC(=O)N1CCN(C(=O)Cc2c[nH]c3ccccc23)[C@@H]2[C@@H](N3CCCC3)CCC[C@@H]21.Cl (racemic) [Example 9]	43	–	–	–
COC(=O)N1CCN(C(=O)Cc2ccc(Cl)c(Cl)c2)[C@@H]2[C@@H](N(C)C)CCC[C@@H]21.Cl (racemic) [Example 17]	92	92	< 10	% binding at 1 μM [1]: 97%
Cl.O=C(Cc1ccc(Cl)c(Cl)c1)N1CCN(C(=O)NCc2ccccc2)[C@H]2CCC[C@H](N3CCCC3)[C@H]21 (racemic) [Example 41]	92	81	< 10	–
Cl.NCC(=O)N1CCN(C(=O)Cc2ccc(Cl)c(Cl)c2)[C@@H]2[C@@H](N3CCCC3)CCC[C@@H]21 (racemic) [Example 44]	41	–	–	–
CCOC(=O)COC(=O)N1CCN(C(=O)Cc2ccc(Cl)c(Cl)c2)C2C(N3CCCC3)CCCC21.Cl (stereo not drawn) [Example 111]	105	105	< 10	–
COC(=O)N1CCN(C(=O)Cc2ccc(Cl)c(F)c2)[C@@H]2[C@@H](N3CC[C@H](O)C3)CCC[C@@H]21 [Example 112]	–	–	–	increase in ear thickness ([3]; mouse, in vivo): dose dependently prevented the increase; activation at 1 µM [2]: 93%; EC50 ([2]; GTPγS EC50 (nM)): < 10 nM
CNC(=O)C(=O)N1CCN(C(=O)Cc2ccc(Cl)c(Cl)c2)[C@@H]2[C@@H](N3CCCC3)CCC[C@@H]21.Cl [Example 118]	–	104	< 10	increase in ear thickness ([3]; topical, versus vehicle control): dose dependently prevented the increase
CC(C)NC(=O)N1CCN(C(=O)Cc2ccc(Cl)c(F)c2)C2C(N3CCC(O)C3)CCCC21.Cl (stereo not drawn) [Example 119]	–	102	10 to 100	–
CC(C)NC(=O)N1CCN(C(=O)Cc2ccc(Cl)c(Cl)c2)C2C(N3CCC(O)C3)CCCC21.Cl (stereo not drawn) [Example 120]	–	100	< 10	–
CS(=O)(=O)N1CCN(C(=O)Cc2ccc(Cl)c(Cl)c2)C2C(N3CCC(O)C3)CCCC21.Cl (stereo not drawn) [Example 121]	–	106	< 10	–
CC(C)OC(=O)C(=O)N1CCN(C(=O)Cc2ccc(Cl)c(Cl)c2)[C@@H]2[C@@H](N3CCCC3)CCC[C@@H]21.Cl [Example 123]	68	99	< 10	–
CS(=O)(=O)N1CCN(C(=O)Cc2ccc(C(F)(F)F)c(Cl)c2)[C@@H]2[C@@H](N3CC[C@H](O)C3)CCC[C@@H]21 [Example 124]	–	–	–	activation at 1 µM [2]: 97%; EC50 ([2]; GTPγS EC50 (nM)): < 10 nM
Cl.O=C(Cc1ccc(Cl)c(Cl)c1)N1CCN(S(=O)(=O)N2CCCC2)C2CCCC(N3CCC(O)C3)C21 (stereo not drawn) [Example 127]	66	100	10 to 100	–
Cl.O=C(Cc1ccc(Cl)c(Cl)c1)N1CCN(S(=O)(=O)c2cn[nH]c2)C2CCCC(N3CCC(O)C3)C21 (stereo not drawn) [Example 128]	92	95	< 10	–
CN(C)S(=O)(=O)N1CCN(C(=O)Cc2ccc(Cl)c(Cl)c2)C2C(N3CCC(O)C3)CCCC21.Cl (stereo not drawn) [Example 129]	80	104	< 10	–
Cl.O=C(Cc1ccc(Cl)c(Cl)c1)N1CCN(S(=O)(=O)NCCO)C2CCCC(N3CCC(O)C3)C21 (stereo not drawn) [Example 130]	70	102	10 to 100	–
CNS(=O)(=O)N1CCN(C(=O)Cc2ccc(Cl)c(Cl)c2)C2C(N3CCC(O)C3)CCCC21.Cl (stereo not drawn) [Example 131]	78	104	< 10	–
CCNS(=O)(=O)N1CCN(C(=O)Cc2ccc(Cl)c(Cl)c2)C2C(N3CCC(O)C3)CCCC21.Cl (stereo not drawn) [Example 132]	71	106	< 10	–
CCCNS(=O)(=O)N1CCN(C(=O)Cc2ccc(Cl)c(Cl)c2)C2C(N3CCC(O)C3)CCCC21.Cl (stereo not drawn) [Example 133]	74	105	< 10	–
CC(C)NS(=O)(=O)N1CCN(C(=O)Cc2ccc(Cl)c(Cl)c2)[C@@H]2[C@@H](N3CC[C@H](O)C3)CCC[C@@H]21 [Example 134]	67	102	< 10	–

SMILES	% binding at 100 nM [1] [%]	% activation functional assay at 1 μM [2] [%]	EC50 ([2]; read-out: GTPγS EC50) [nM]	further results
O=C(Cc1ccc(Cl)c(Cl)c1)N1CCN(S(=O)(=O)NC2CCCC2)[C@H]2CCC[C@H](N3CC[C@H](O)C3)[C@H]21 [Example 135]	76	105	< 10	–
O=C(Cc1ccc(Cl)c(Cl)c1)N1CCN(S(=O)(=O)Cc2ccon2)[C@H]2CCC[C@H](N3CC[C@H](O)C3)[C@H]21 [Example 136]	96	108	< 10	–
O=C(Cc1ccc(Cl)c(Cl)c1)N1CCN(S(=O)(=O)N2CCOCC2)[C@H]2CCC[C@H](N3CC[C@H](O)C3)[C@H]21 [Example 137]	71	101	< 10	–
COC(=O)N1CCN(C(=O)Cc2ccc(F)c(F)c2)[C@@H]2[C@@H](N3CC[C@H](O)C3)CCC[C@@H]21 [Example 138]	–	–	–	activation at 1 µM [2]: 108%; EC50 ([2]; GTPγS EC50 (nM)): 10 to 100 nM
COC(=O)N1CCN(C(=O)Cc2ccc(C(F)(F)F)cc2)[C@@H]2[C@@H](N3CC[C@H](O)C3)CCC[C@@H]21 [Example 139]	–	–	–	activation at 1 µM [2]: 104%; EC50 ([2]; GTPγS EC50 (nM)): < 10 nM
COC(=O)N1CCN(C(=O)Cc2ccc(Cl)cc2)[C@@H]2[C@@H](N3CC[C@H](O)C3)CCC[C@@H]21 [Example 140]	–	–	–	activation at 1 µM [2]: 103%; EC50 ([2]; GTPγS EC50 (nM)): 10 to 100 nM
COC(=O)N1CCN(C(=O)Cc2ccc(C(F)(F)F)c(F)c2)[C@@H]2[C@@H](N3CC[C@H](O)C3)CCC[C@@H]21 [Example 141]	–	–	–	activation at 1 µM [2]: 99%; EC50 ([2]; GTPγS EC50 (nM)): < 10 nM
COC(=O)N1CCN(C(=O)Cc2cccc(C(F)(F)F)c2)[C@@H]2[C@@H](N3CC[C@H](O)C3)CCC[C@@H]21 [Example 142]	–	–	–	activation at 1 µM [2]: 106%; EC50 ([2]; GTPγS EC50 (nM)): 10 to 100 nM
COC(=O)N1CCN(C(=O)Cc2cccc(Cl)c2)[C@@H]2[C@@H](N3CC[C@H](O)C3)CCC[C@@H]21 [Example 143]	–	–	–	activation at 1 µM [2]: 102%; EC50 ([2]; GTPγS EC50 (nM)): 10 to 100 nM
O=C(Cc1ccc(Cl)cc1)N1CCN(S(=O)(=O)Cc2ccon2)[C@H]2CCC[C@H](N3CC[C@H](O)C3)[C@H]21 [Example 146]	76	103	< 10	–
O=C(Cc1ccc(Cl)c(F)c1)N1CCN(S(=O)(=O)Cc2ccon2)[C@H]2CCC[C@H](N3CC[C@H](O)C3)[C@H]21 [Example 147]	88	105	< 10	–
O=C(Cc1ccc(F)c(Cl)c1)N1CCN(S(=O)(=O)Cc2ccon2)[C@H]2CCC[C@H](N3CC[C@H](O)C3)[C@H]21 [Example 148]	92	93	< 10	–
O=C(Cc1ccc(F)c(F)c1)N1CCN(S(=O)(=O)Cc2ccon2)[C@H]2CCC[C@H](N3CC[C@H](O)C3)[C@H]21 [Example 149]	81	97	< 10	–
COC(=O)N1CCN(C(=O)Cc2ccc(F)c(Cl)c2)[C@@H]2[C@@H](N3CC[C@H](F)C3)CCC[C@@H]21 [Example 150]	97	92	< 10	–
O=C(c1ccccc1)N1CCN(C(=O)Cc2ccc(Cl)c(Cl)c2)C2C(N3CCCC3)CCCC21 (stereo not drawn) [L, reference compound]	–	–	–	activation (% of control) at 1 μM [2]: 74 % of control
CCC(=O)N1CCN(C(=O)Cc2ccc(Cl)c(Cl)c2)C2C(N3CCCC3)CCCC21 (stereo not drawn) [N, reference compound]	–	–	–	activation (% of control) at 1 μM [2]: 63 % of control; EC50 [2, 4]: 600 nM
COC(=O)CC(=O)N1CCN(C(=O)Cc2ccc(Cl)c(Cl)c2)C2C(N3CCCC3)CCCC21 (stereo not drawn) [P, reference compound]	–	–	–	activation (% of control) at 1 μM [2]: 81 % of control; EC50 [2, 4]: 220 nM
O=C(c1ccccc1)N1CCN(C(=O)Cc2ccc(Cl)c(Cl)c2)C2C(N3CCC(O)C3)CCCC21 (stereo not drawn) [R, reference compound]	–	–	–	activation (% of control) at 1 μM [2]: 63 % of control
COC(=O)N1CCN(C(=O)Cc2ccc(Cl)c(Cl)c2)C2C(N3CCC(O)C3)CCCC21 (stereo not drawn) [S, reference compound]	–	–	–	activation (% of control) at 1 μM ([2]; 1 µM): 91 % of control; EC50 [2, 4]: 85 nM
COC(=O)CC(=O)N1CCN(C(=O)Cc2ccc(Cl)c(Cl)c2)C2C(N3CCC(O)C3)CCCC21 (stereo not drawn) [U, reference compound]	–	–	–	activation (% of control) at 1 μM [2]: 86 % of control; EC50 [2, 4]: 170 nM
CCCCN1CCN(C(=O)Cc2ccc(Cl)c(Cl)c2)C2C(N3CCCC3)CCCC21 (stereo not drawn) [W, reference compound]	–	–	–	activation (% of control) at 1 μM [2]: 113 % of control; EC50 [2, 4]: 12 nM
COc1ccc(CN2CCN(C(=O)Cc3ccc(Cl)c(Cl)c3)C3C(N4CCCC4)CCCC32)cc1 (stereo not drawn) [X, reference compound]	–	–	–	activation (% of control) at 1 μM [2]: 91 % of control; EC50 [2, 4]: 26 nM
